Measurements from ChEMBL document CHEMBL1201862, “PubChem BioAssay data set” (2004).
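Test compounds were applied to cells in 96-well plates for 48 hours at 5 doses. Here, GI50 denotes the concentration required for 50% inhibition of growth.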 The source made the active and inactive calls. Rule as the data show it: active = GI50 up to about 1.1 µM and inactive = higher.

Experiments:
Experiment in all cases: NCI-60 cell line screen, 48 h
[1] = test system: SF-268
[2] = test system: U-251
[3] = test system: NCI-H226
[4] = test system: MDA-MB-231
[5] = test system: HT-29
[6] = test system: M14
[7] = test system: SW-620
[8] = test system: RXF 393
[9] = test system: NCI/ADR-RES
[10] = test system: OVCAR-8
[11] = test system: HOP-62
[12] = test system: IGROV-1
[13] = test system: ACHN
[14] = test system: OVCAR-5
[15] = test system: HOP-92
[16] = test system: CCRF-CEM
[17] = test system: OVCAR-3
[18] = test system: Malme-3M
[19] = test system: OVCAR-4

Structure (SMILES)	GI50 [1]	GI50 [2]	GI50 [3]	GI50 [4]	GI50 [5]	GI50 [6]	GI50 [7]	GI50 [8]	GI50 [9]	GI50 [10]	GI50 [11]	GI50 [12]	GI50 [13]	GI50 [14]	GI50 [15]	GI50 [16]	GI50 [17]	GI50 [18]	GI50 [19]
O=C(Nc1ccccc1C(=O)NCc1ccccc1)/C(=C/c1ccccc1O)NC(=O)c1ccccc1	54.1 µM (inactive)	52.5 µM (inactive)	> 100 µM (inactive)	27.1 µM (inactive)	> 100 µM (inactive)	> 100 µM (inactive)	> 100 µM (inactive)	48.9 µM (inactive)	88.5 µM (inactive)	95.1 µM (inactive)	27.1 µM (inactive)	73.1 µM (inactive)	61 µM (inactive)	> 100 µM (inactive)	75.3 µM (inactive)	> 100 µM (inactive)	> 100 µM (inactive)		
COc1ccc(/N=c2\ssc3c(=S)ssc23)cc1	35.7 µM (inactive)	28.4 µM (inactive)	> 100 µM (inactive)			20 µM (inactive)	15.3 µM (inactive)	21.2 µM (inactive)		17 µM (inactive)	> 100 µM (inactive)	5.94 µM (inactive)	23.8 µM (inactive)	30.2 µM (inactive)	15.5 µM (inactive)	3.68 µM (inactive)	25.2 µM (inactive)	34.9 µM (inactive)	34.9 µM (inactive)
CC[N+]1(C)CCC(O)(/C=C/c2ccc(Cl)c(Cl)c2)C(C(=O)/C=C/c2ccc(Cl)c(Cl)c2)C1 (configuration not stated)	2.67 µM (inactive)	1.77 µM (inactive)	4.08 µM (inactive)		2.07 µM (inactive)		1.91 µM (inactive)	2.04 µM (inactive)	2.51 µM (inactive)	2.55 µM (inactive)	2.49 µM (inactive)	2.96 µM (inactive)	1.98 µM (inactive)	2.62 µM (inactive)	1.7 µM (inactive)	1.38 µM (inactive)	3.09 µM (inactive)	1.62 µM (inactive)	
Cc1ccc(C(=O)/C=C/c2ccccc2O)c(C)c1	93.3 µM (inactive)	> 100 µM (inactive)	> 100 µM (inactive)		0.8 µM (active)	> 100 µM (inactive)	> 100 µM (inactive)	> 100 µM (inactive)		> 100 µM (inactive)	> 100 µM (inactive)	> 100 µM (inactive)	> 100 µM (inactive)	> 100 µM (inactive)	> 100 µM (inactive)	30.1 µM (inactive)	> 100 µM (inactive)	> 100 µM (inactive)	> 100 µM (inactive)
O=C(NNC(=S)Nc1ccc(Br)cc1)c1cc(-c2ccccc2)nc2ccccc12	33.3 µM (inactive)	16.2 µM (inactive)	24.3 µM (inactive)	18.6 µM (inactive)	32.1 µM (inactive)	17 µM (inactive)	21.2 µM (inactive)	18.4 µM (inactive)	18.6 µM (inactive)	23.1 µM (inactive)	20 µM (inactive)	37.8 µM (inactive)	34.8 µM (inactive)	24.9 µM (inactive)	20 µM (inactive)	22.1 µM (inactive)	17 µM (inactive)	17.3 µM (inactive)	19.8 µM (inactive)
c1ccc2c(c1)[Se]c1ccccc1[Se]2	> 100 µM (inactive)	37.5 µM (inactive)	44.1 µM (inactive)		> 100 µM (inactive)	> 100 µM (inactive)	> 100 µM (inactive)	61.8 µM (inactive)		> 100 µM (inactive)	> 100 µM (inactive)	47.6 µM (inactive)	> 100 µM (inactive)	> 100 µM (inactive)	25.8 µM (inactive)	57.8 µM (inactive)	> 100 µM (inactive)	> 100 µM (inactive)	23.4 µM (inactive)
Cc1cc(NC(=O)C2C3C=CC(O3)C2C(=O)O)no1 (configuration not stated)	24.3 µM (inactive)	21.3 µM (inactive)	> 100 µM (inactive)		34.6 µM (inactive)	> 100 µM (inactive)	1.5 µM (inactive)	16.4 µM (inactive)		16.2 µM (inactive)	> 100 µM (inactive)	> 100 µM (inactive)	39.7 µM (inactive)	> 100 µM (inactive)	> 100 µM (inactive)	19.1 µM (inactive)	> 100 µM (inactive)	> 100 µM (inactive)	88.1 µM (inactive)
Cc1ccc(S(=O)(=O)OC2CC=CC2)cc1		> 100 µM (inactive)	> 100 µM (inactive)		> 100 µM (inactive)	> 100 µM (inactive)	> 100 µM (inactive)	> 100 µM (inactive)		> 100 µM (inactive)	> 100 µM (inactive)	> 100 µM (inactive)	> 100 µM (inactive)	> 100 µM (inactive)	> 100 µM (inactive)	> 100 µM (inactive)	> 100 µM (inactive)	> 100 µM (inactive)	> 100 µM (inactive)
O=C1NC(=O)C(CCC(=O)c2ccc3ccccc3c2)C(=O)N1	> 100 µM (inactive)	> 100 µM (inactive)	> 100 µM (inactive)		> 100 µM (inactive)	> 100 µM (inactive)	> 100 µM (inactive)	> 100 µM (inactive)		> 100 µM (inactive)	> 100 µM (inactive)	> 100 µM (inactive)	> 100 µM (inactive)	> 100 µM (inactive)	> 100 µM (inactive)	> 100 µM (inactive)	> 100 µM (inactive)	> 100 µM (inactive)	> 100 µM (inactive)
FC(F)=C(c1ccc(-c2ccc(Cl)cc2)cc1)C(F)(F)F	23.9 µM (inactive)	16.7 µM (inactive)		17.7 µM (inactive)	25.6 µM (inactive)	19.7 µM (inactive)	20 µM (inactive)	20.6 µM (inactive)	26.1 µM (inactive)	24.3 µM (inactive)		17 µM (inactive)	17.3 µM (inactive)	17.5 µM (inactive)	15.1 µM (inactive)	26.8 µM (inactive)		17.2 µM (inactive)	18.5 µM (inactive)
Cc1ccccc1N1C(N)=C(C#N)C(C#N)(C#N)C1c1ccccc1 (configuration not stated)	20.9 µM (inactive)	16.7 µM (inactive)	20.7 µM (inactive)	13.3 µM (inactive)	18.4 µM (inactive)	23.4 µM (inactive)	16.3 µM (inactive)	15.3 µM (inactive)	20.7 µM (inactive)	20.9 µM (inactive)	19.4 µM (inactive)	17.9 µM (inactive)	16.1 µM (inactive)	21.9 µM (inactive)	13.8 µM (inactive)	14.7 µM (inactive)	17.2 µM (inactive)	16.4 µM (inactive)	19 µM (inactive)
COC(=O)C(=O)C(C(=O)OC)C(=O)C(=O)Nc1c(C)cccc1C (configuration not stated)	> 100 µM (inactive)	> 100 µM (inactive)	> 100 µM (inactive)		> 100 µM (inactive)	> 100 µM (inactive)	> 100 µM (inactive)	> 100 µM (inactive)		> 100 µM (inactive)	> 100 µM (inactive)	> 100 µM (inactive)	> 100 µM (inactive)	> 100 µM (inactive)	41.6 µM (inactive)	48.2 µM (inactive)	> 100 µM (inactive)	> 100 µM (inactive)	> 100 µM (inactive)
COc1ccc(OCC(=O)O)c(C(=O)CCC(=O)O)c1	> 100 µM (inactive)	> 100 µM (inactive)	83.8 µM (inactive)		> 100 µM (inactive)	> 10 µM (inactive)	> 100 µM (inactive)	> 100 µM (inactive)		> 100 µM (inactive)	> 10 µM (inactive)	> 100 µM (inactive)	> 100 µM (inactive)	> 100 µM (inactive)	> 100 µM (inactive)	> 100 µM (inactive)	> 10 µM (inactive)	> 100 µM (inactive)	> 100 µM (inactive)
COc1cccc(SSc2cccc(OC)c2C(=O)O)c1C(=O)O	> 100 µM (inactive)	> 100 µM (inactive)	> 100 µM (inactive)		> 100 µM (inactive)	> 100 µM (inactive)	> 100 µM (inactive)	> 100 µM (inactive)		> 100 µM (inactive)	> 100 µM (inactive)	> 100 µM (inactive)	> 100 µM (inactive)	> 100 µM (inactive)	> 100 µM (inactive)	> 100 µM (inactive)	> 100 µM (inactive)	> 100 µM (inactive)	> 100 µM (inactive)
O=C(c1ccc2ccccc2c1)N(Cc1cccnc1)C(=S)N(Cc1cccnc1)C(=O)c1ccc2ccccc2c1	29.2 µM (inactive)	19 µM (inactive)	61.2 µM (inactive)	23.2 µM (inactive)	30 µM (inactive)	20.8 µM (inactive)	49.5 µM (inactive)	19.3 µM (inactive)	30 µM (inactive)	25.7 µM (inactive)	23.2 µM (inactive)		32.1 µM (inactive)	55 µM (inactive)	26.5 µM (inactive)	60.7 µM (inactive)	20.5 µM (inactive)	> 100 µM (inactive)	20.7 µM (inactive)
NCCCC(N)(C(=O)O)C(F)F (configuration not stated) [EFLORNITHINE]	> 5000 µM (inactive)	> 5000 µM (inactive)	> 5000 µM (inactive)		> 2790 µM (inactive)	> 100 µM (inactive)	> 5000 µM (inactive)	> 5000 µM (inactive)	> 5000 µM (inactive)		> 5000 µM (inactive)	> 5000 µM (inactive)	> 100 µM (inactive)		> 1890 µM (inactive)	> 1580 µM (inactive)	> 3940 µM (inactive)	> 5000 µM (inactive)	> 5000 µM (inactive)
